Series [1] in a line: Lipophilic-hydrophilic balance, Rm of the compound by reversed-phase partition chromatography. Type of series: physicochemical.
Series [2] can be described thus: Ionization constant, pKa of the compound in 20% DMF-buffer mixture by UV spectrophotometry. Type of series: physicochemical.
A short description of series [3]: Toxicity in ip dosed mouse allografted with mouse L1210 cells administered qd from day 1 to 5 of challenge. Type of series: organism-based. The following applies: in vivo.
Series [4] deals with L1210. Description: Antitumor activity against mouse L1210 cells allografted in ip dosed mouse assessed as increase in life span at optimal dose administered qd from day 1 to 5 of challenge relative to control. Type of series: functional.
The subject of series [5] is L1210. Put plainly: Antitumor activity against mouse L1210 cells allografted in ip dosed mouse assessed as dose required for maximum increase in life span administered qd from day 1 to 5 of challenge. It is filed as functional.
A short description of series [6]: Ionization constant, pKa of the compound at pH 7.4. Type of series: physicochemical.

Results on 20 compounds are retold here after ChEMBL document CHEMBL3243967, “Potential antitumor agents. 25. Azalogues of the 4'-(9-acridinylamino) methanesulfonanilides” (J Med Chem, 1977).

In turn, `CS(=O)(=O)Nc1ccc(Nc2c3ccccc3nc3c([N+](=O)[O-])cccc23)cc1` displayed a Rm in series [1] of -0.17. Besides, the pKa in series [2] is 4.88. Besides, in series [3], the MTD is over 500 mg/kg.

In series [1], `CS(=O)(=O)Nc1ccc(Nc2c3ccccc3nc3ncccc23)cc1` came in with a Rm of -0.27. In series [2], the pKa was 5.93. Also, the MTD in series [3] is over 500 mg/kg.

Compound `CS(=O)(=O)Nc1ccc(Nc2c3ccccc3nc3cccnc23)cc1` returned a Rm in series [1] of -0.56. Besides, in series [2], the pKa amounted to 6.9. The compound also had an MTD in series [3] of over 500 mg/kg.

As to `CS(=O)(=O)Nc1ccc(Nc2c3ccccc3nc3cccc([N+](=O)[O-])c23)cc1`, in series [1], the Rm is recorded as -0.09. Also, in series [2], the pKa came to 4.79. Moreover, the MTD in series [3] was 75 mg/kg.

`COc1cc(Nc2c3ccccc3nc3c([N+](=O)[O-])cccc23)ccc1NS(C)(=O)=O` yielded a Rm in series [1] of 0.09. Moreover, the pKa in series [2] came to 5.05. The “Increase in life span” value with L1210 [4] is recorded as 38%. In addition, the Activity in the series with L1210 [5] stood at 75 mg/kg.

Compound `CS(=O)(=O)Nc1ccc(Nc2c3ccccc3nc3cc([N+](=O)[O-])ccc23)cc1` had a Rm in series [1] of -0.17. Besides, in series [2], the pKa was found to be 5.52. The “Increase in life span” value in the series with L1210 [4] is listed as 123%. For the same compound, the Activity with L1210 [5] is 25 mg/kg.

Take `CS(=O)(=O)Nc1ccc(Nc2c3ccccc3nc3ccncc23)cc1`: the Rm in series [1] is -0.39. In addition, the pKa in series [2] worked out at 5.73. The compound further yielded an MTD in series [3] of over 500 mg/kg.

In series [6], `CS(=O)(=O)Nc1ccc(Nc2c3ccc([N+](=O)[O-])cc3nc3cc([N+](=O)[O-])ccc23)cc1` registered a pKa of 3.68.

As to `COc1cc(Nc2c3ccccc3nc3cccnc23)ccc1NS(C)(=O)=O`, the Rm in series [1] is -0.39. Further, the pKa in series [2] was determined as 7.19. The MTD in series [3] turned out to be 220 mg/kg.

With `COc1cc(Nc2c3ccccc3nc3ccncc23)ccc1NS(C)(=O)=O`, the Rm in series [1] is given as -0.25. Besides, in series [2], the pKa worked out at 5.84. In series [3], this compound yielded an MTD of 500 mg/kg.

Compound `COc1cc(Nc2c3ccccc3nc3cnccc23)ccc1NS(C)(=O)=O` came in with a Rm in series [1] of -0.13. The pKa in series [2] worked out at 5.53. Also, in the series with L1210 [4], the “Increase in life span” value is listed as 88%. The Activity in the series on L1210 [5] was determined as 90 mg/kg.

As to `COc1cc(Nc2c3ccccc3nc3ncccc23)ccc1NS(C)(=O)=O`, the Rm in series [1] is listed as -0.07. Besides, in series [2], the pKa came out at 6.09. Besides, the “Increase in life span” value in the series on L1210 [4] is given as 89%. The Activity in the series with L1210 [5] turned out to be 62 mg/kg.

In series [1], `COc1cc(Nc2c3ccccc3nc3cccc([N+](=O)[O-])c23)ccc1NS(C)(=O)=O` came in with a Rm of -0.01. Moreover, the pKa in series [2] was 4.98. For the same compound, the “Increase in life span” value with L1210 [4] came out at 44%. Moreover, the Activity in the series with L1210 [5] was 180 mg/kg.

For `COc1cc(Nc2c3ccccc3nc3ccc([N+](=O)[O-])cc23)ccc1NS(C)(=O)=O`, in series [1], the Rm is reported as -0.06. Further, in series [2], the pKa was 5.63. In series [3], this compound gave an MTD of over 500 mg/kg.

Compound `COc1cc(Nc2c3ccccc3nc3cc([N+](=O)[O-])ccc23)ccc1NS(C)(=O)=O` yielded a Rm in series [1] of 0.11. The pKa in series [2] was 5.72. Also, in the series with L1210 [4], the “Increase in life span” value worked out at 84%. The Activity in the series with L1210 [5] was 4.5 mg/kg.

With `CS(=O)(=O)Nc1ccc(Nc2c3ccccc3nc3ccc(N)cc23)cc1`, in series [1], the Rm is reported as -0.31. Also, the pKa in series [2] was 7.15. Also, the “Increase in life span” value in the series on L1210 [4] is recorded as 78%. In the series on L1210 [5], the Activity came to 25 mg/kg.

Regarding `CS(=O)(=O)Nc1ccc(Nc2c3ccccc3nc3ccc([N+](=O)[O-])cc23)cc1`, the Rm in series [1] is recorded as -0.21. Further, the pKa in series [2] came out at 5.42. Also, the “Increase in life span” value with L1210 [4] was determined as 27%. For the same compound, the Activity with L1210 [5] was determined as 250 mg/kg.

Consider `CS(=O)(=O)Nc1ccc(Nc2c3ccccc3nc3cnccc23)cc1`, for which the Rm in series [1] is -0.33. Also, in series [2], the pKa amounted to 5.32. Further, the MTD in series [3] is over 500 mg/kg.

With `CS(=O)(=O)Nc1ccc(Nc2c3ccccc3nc3cc(N)ccc23)cc1`, the Rm in series [1] is reported as -0.17. For the same compound, the pKa in series [2] was determined as 9.8. Further, in the series on L1210 [4], the “Increase in life span” value is reported as 81%. For the same compound, the Activity in the series with L1210 [5] was 2.5 mg/kg.

In the case of `CS(=O)(=O)Nc1ccc(Nc2c3ccccc3nc3ccccc23)cc1`, the Rm in series [1] amounted to 0. Besides, in the series with L1210 [4], the “Increase in life span” value was found to be 107%. For the same compound, the Activity in the series with L1210 [5] is 45 mg/kg.
